Data as given in patent publication US4359583A, “Antibiotics TM-531 B and TM-531 C” (Taisho Pharmaceutical Co., Ltd., priority 1980, dated 1982).
Entries after “also recorded” stand apart in the source; their conditions may differ.

Experiments:
[1] = system: yeasts; experiment: Physiological properties: growth inhibition; format: cell-based; details: in words
[2] = system: gram-positive bacteria; experiment: Physiological properties: growth inhibition; format: cell-based; details: in words
[3] = system: Pseudomonas aeruginosa IID 1052; experiment: MIC, antibacterial activity on heart infusion agar; format: cell-based; details: inoculum 10^6 CFU/ml
Procedure: (§1) Using heart infusion agar as a medium the MIC (minimum inhibition concentration) of Antibiotics TM-531 B and TM-531 C against various bacteria were measured using an inoculum size of 10^6 CFU/ml, to determine its antibacterial activity.

[4] = system: Escherichia coli NIHJ C-2; experiment: MIC, antibacterial activity on heart infusion agar; format: cell-based; details: inoculum 10^6 CFU/ml
Procedure: as §1

[5] = system: Staphylococcus epidermidis TPR-25; experiment: MIC, antibacterial activity on heart infusion agar; format: cell-based; details: inoculum 10^6 CFU/ml
Procedure: as §1

[6] = system: Staphylococcus epidermidis IID 866; experiment: MIC, antibacterial activity on heart infusion agar; format: cell-based; details: inoculum 10^6 CFU/ml
Procedure: as §1

[7] = system: Streptococcus faecalis ATCC 8043; experiment: MIC, antibacterial activity on heart infusion agar; format: cell-based; details: inoculum 10^6 CFU/ml
Procedure: as §1

[8] = system: Staphylococcus aureus FDA 209P; experiment: MIC, antibacterial activity on heart infusion agar; format: cell-based; details: inoculum 10^6 CFU/ml
Procedure: as §1

[9] = system: Staphylococcus aureus TPR-23; experiment: MIC, antibacterial activity on heart infusion agar; format: cell-based; details: inoculum 10^6 CFU/ml
Procedure: as §1

[10] = system: Staphylococcus aureus Smith; experiment: MIC, antibacterial activity on heart infusion agar; format: cell-based; details: inoculum 10^6 CFU/ml
Procedure: as §1

[11] = system: Bacillus licheniformis; experiment: MIC, antibacterial activity on heart infusion agar; format: cell-based; details: inoculum 10^6 CFU/ml
Procedure: as §1

[12] = system: Micrococcus luteus NIHJ; experiment: MIC, antibacterial activity on heart infusion agar; format: cell-based; details: inoculum 10^6 CFU/ml
Procedure: as §1

[13] = system: Bacillus subtilis ATCC 6633; experiment: MIC, antibacterial activity on heart infusion agar; format: cell-based; details: inoculum 10^6 CFU/ml
Procedure: as §1

[14] = Improving the feed efficiency when incorporated into feeds; format: in vivo; details: incorporated into feeds for poultry, hogs, etc.
[15] = system: protozoa as hog dysentery, coccidium, toxoplasma and trypanosoma; experiment: Physiological properties: growth inhibition; format: cell-based; details: in words
[16] = system: plant pathogenic microorganisms; experiment: Physiological properties: growth inhibition; format: cell-based; details: in words
[17] = Solubility in solvents; format: physicochemical; details: measured as the sodium salt
[18] = Classification of Nature (basic, acidic or neutral); format: physicochemical; details: measured as the sodium salt
[19] = system: gram-negative bacteria; experiment: Physiological properties: growth inhibition; format: cell-based; details: in words

CC/C=C(\C[C@@]1(C)COC2(CC[C@@](C)([C@H]3C[C@H](O[C@@H]4C[C@@H](O)[C@H](OC)[C@@H](C)O4)[C@@H](C)C4(O[C@@H](C5O[C@@](O)(CO)[C@H](C)C[C@@H]5C)C[C@H]4C)O3)O2)C[C@@H]1O)C(=O)C(C)CC(C)C(=O)[O-].[Na+] (some centres unmarked) [TM-531 C]
activity against yeasts [1]: ineffective
growth inhibition of gram-positive bacteria [2]: inhibits the growth; also recorded: excellent growth inhibitory activity
MIC (minimum inhibition concentration) [3]: > 100 mg/L
MIC (minimum inhibition concentration) [4]: > 100 mg/L
MIC (minimum inhibition concentration) [5]: 25 mg/L
MIC (minimum inhibition concentration) [6]: 25 mg/L
MIC (minimum inhibition concentration) [7]: 12.5 mg/L
MIC (minimum inhibition concentration) [8]: 12.5 mg/L
MIC (minimum inhibition concentration) [9]: 50 mg/L
MIC (minimum inhibition concentration) [10]: 25 mg/L
MIC (minimum inhibition concentration) [11]: 12.5 mg/L
MIC (minimum inhibition concentration) [12]: 12.5 mg/L
MIC (minimum inhibition concentration) [13]: 25 mg/L
improving the feed efficiency [14]: effective
growth inhibition of protozoa [15]: inhibits the growth; also recorded: excellent growth inhibitory activity
growth inhibition of plant pathogenic microorganisms [16]: inhibits the growth; also recorded: excellent growth inhibitory activity
Solubility in organic solvents ([17]; methanol, ethanol, acetone, ethyl acetate, n-hexane, chloroform and benzene): soluble
Solubility in water ([17]; water): Insoluble
Classification of Nature (basic, acidic or neutral) [18]: Acidic
activity against gram-negative bacteria [19]: ineffective
